According to publication PMC3179850 (Bioorganic & medicinal chemistry letters, 2009):

Experiments:
HIV-1MDR/JSL (R5) = assay: microbe, parasite or virus in culture; format: cell-based
HIV-1MDR/G (X4) = format: cell-based
HIV-1 protease = HIV-1 protease (Human immunodeficiency virus type 1 group M subtype B, UniProt P04585); assay: HIV-1 protease enzyme inhibitory assay; format: biochemical
HIV-1MDR/C (X4) = format: cell-based
HIV-1MDR/MM (R5) = format: cell-based
HIV-1MDR/TM (X4) = format: cell-based

Work on CC(C)CN(C[C@@H](O)[C@H](Cc1ccccc1)NC(=O)O[C@H]1CCOC1)S(=O)(=O)c1ccc(N)cc1 [APV, Amprenavir, reference compound] yielded an IC50 (HIV-1MDR/JSL (R5); Human immunodeficiency virus 1) of 531 ± 69 nM.
Cc1ccccc1CNC(=O)[C@H]1N(C(=O)[C@@H](O)[C@H](Cc2ccccc2)NC(=O)O[C@H]2CO[C@H]3OCC[C@H]32)CSC1(C)C [Inhibitor 3b] was tested, and the potency over amprenavir (HIV-1MDR/G (X4)) was ≥ 5 fold, the potency enhancement (HIV-1 protease; with respect to 3a, enzyme inhibition) was “over 40 fold” and the potency over amprenavir (HIV-1MDR/C (X4)) was ≥ 5 fold. For the same compound, the potency over amprenavir (HIV-1MDR/MM (R5)) was ≥ 5 fold, the potency over amprenavir (HIV-1MDR/TM (X4)) was ≥ 5 fold and the potency over amprenavir (HIV-1MDR/JSL (R5); HIV-1MDR/JSL) was “over 2 fold”.
With Cc1ccccc1CNC(=O)[C@H]1N(C[C@@H](O)[C@H](Cc2ccccc2)NC(=O)O[C@H]2CCOC2)CSC1(C)C [Inhibitor 14a] the “reduction in enzyme inhibitory activity” value (HIV-1 protease; relative to corresponding inhibitor 3a) was “over 400 fold”.
In the case of Cc1cc(CO)ccc1CNC(=O)[C@H]1N(C(=O)[C@@H](O)[C@H](Cc2ccccc2)NC(=O)O[C@H]2CO[C@H]3OCC[C@H]32)CSC1(C)C [Inhibitor 16c], the “enzyme inhibitory activity (in words)” value (HIV-1 protease) is reported as “sub-nanomolar”.
